Measurements from PubChem BioAssay AID504758 (National Center for Advancing Translational Sciences (NCATS), 2011).

Tested on: Caco-2 monolayer permeability, A-to-B, LC-MS/MS
Test: Inhibitors of Cruzain: Caco-2 Permeability Profiling Assay
Details: stronger effect = higher value
Source text: Chagas Disease is a neglected tropical disease that affects over 16 million people in Latin America. The cysteine protease cruzain is essential for the survival Trypanosoma cruzi, the parasitic agent responsible for Chagas disease. Potential intervention for T. cruzi includes the inhibition of cruzain. This bioassay will summarize the ongoing development of small molecule cruzain inhbitiors. Currently, a screen of ~200k compounds and through extensive follow-up work a probe was identified. To further characterize the probe, it was tested in in vitro ADME assays. This permeability assay predicts the in vivo absorption of the lead across the intestinal lining by using a Caco-2 cell line and measuring the lead's rate of transport into the cytosol. […] NIH Chemical Genomics Center [NCGC] NIH Molecular Libraries Probe Production Centers Network [MLPCN] MLSCN Grant: DA024891-01 PI Name: Dr. Brian Shoichet; University of California, San Francisco
1. Buffer Preparation: Prepare 1M HEPES: add 23.83g HEPES to 100ml of 0.85% NaCl Prepare HBSS+ buffer: add 12.8ml of 1M HEPES in 0.85% NaCl to 500ml HBSS buffer. 2. Take out the compounds from -80 degrees C, ultrasonicate or pre-warm for a few minutes to thaw the compounds. 3. […] The T0, LY and T90, LY plates are read by FlexStation 3 at excitation of 485 nm and emission of 535 nm to determine LY permeability. […]

apparent permeability Papp: 4.1 10^-6 cm/s
Structure (SMILES): Cc1ccc(OCCn2c(CCNC(=O)C3CCCCC3)nc3ccccc32)cc1
